Measurements reported in patent publication US8524755B2 (priority 2009, dated 2013).

Assays:
Somatostatin sst5 (h) = target: T1, Somatostatin sst5 (h) (Homo sapiens, UniProt P35346); experiment: Binding sst5 (h) (ag); settings: read-out: % Inhibition of Control Specific Binding @ 10 μM
T1 construct: expressed in transfected cells; host or cells: CHO cells
Experimental: (§1) Radioligand binding assay methods utilized to measure the activity of compounds of the invention will be familiar to those skilled in the art. In each assay case, the assay components such as, for example, the cell-type, ligand, reference compound and the like, will be familiar to practitioners of such an assay.
(§2) Analysis and Expression of Results: Compounds of the invention were tested in the biochemical assays and percent inhibition of specific binding was determined. The specific ligand binding to the receptors is defined as the difference between the total binding and the nonspecific binding determined in the presence of an excess of unlabelled ligand. The results are expressed as a percent inhibition of control specific binding (100−((measured specific binding/control specific binding)×100)) obtained in the presence of test compounds.

P2Y = experiment: Binding P2Y (ag); design: species or system rat
Experimental: as §1, §2

GABA transporter = experiment: Binding GABA transporter (aa); design: species or system rat
Experimental: as §1, §2

[1] = target: T2, Thyrotropin Releasing Hormone TRH1 (h) (Homo sapiens, UniProt P34981); experiment: Binding TRH1 (h) (ag); settings: read-out: % Inhibition of Control Specific Binding @ 10 μM
T2 construct: expressed in transfected cells; host or cells: CHO cells
T2 sequence (P34981 1-398): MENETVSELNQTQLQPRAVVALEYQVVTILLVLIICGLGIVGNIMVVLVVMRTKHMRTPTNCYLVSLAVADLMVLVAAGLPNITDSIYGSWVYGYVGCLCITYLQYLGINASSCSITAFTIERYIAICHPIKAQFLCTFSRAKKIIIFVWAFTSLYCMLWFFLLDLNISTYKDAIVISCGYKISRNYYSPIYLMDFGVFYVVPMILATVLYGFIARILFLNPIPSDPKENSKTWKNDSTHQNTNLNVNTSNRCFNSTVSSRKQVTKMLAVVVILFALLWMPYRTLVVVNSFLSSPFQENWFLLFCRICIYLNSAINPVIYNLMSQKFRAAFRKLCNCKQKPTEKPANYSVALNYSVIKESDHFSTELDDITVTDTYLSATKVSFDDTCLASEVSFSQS
Experimental: as §1, §2

PKCα (h) = target: T3, PKCα (h) (Homo sapiens, UniProt P17252); experiment: Enzyme assay PKCα (h); type: biochemical; settings: read-out: % Inhibition of Control Values @ 10 μM
T3 construct: host or cells: insect cells
From the text: (§3) The enzyme assays provided below will be familiar to those skilled in the art.
(§4) Analysis and Expression of Results: The results are expressed as a percent of control specific activity ((measured specific activity/control specific activity)×100) obtained in the presence of the test compounds.

Muscarinic M (ns) = experiment: Binding M (ns) (aa); design: species or system rat
Experimental: as §1, §2

β1 (h) = target: T4, β1 (h) (Homo sapiens, UniProt P08588); experiment: Binding β1 (h) (ag); settings: read-out: % Inhibition of Control Specific Binding @ 10 μM
T4 construct: expressed in transfected cells; host or cells: HEK-293 cells
T4 sequence (P08588 whole entry): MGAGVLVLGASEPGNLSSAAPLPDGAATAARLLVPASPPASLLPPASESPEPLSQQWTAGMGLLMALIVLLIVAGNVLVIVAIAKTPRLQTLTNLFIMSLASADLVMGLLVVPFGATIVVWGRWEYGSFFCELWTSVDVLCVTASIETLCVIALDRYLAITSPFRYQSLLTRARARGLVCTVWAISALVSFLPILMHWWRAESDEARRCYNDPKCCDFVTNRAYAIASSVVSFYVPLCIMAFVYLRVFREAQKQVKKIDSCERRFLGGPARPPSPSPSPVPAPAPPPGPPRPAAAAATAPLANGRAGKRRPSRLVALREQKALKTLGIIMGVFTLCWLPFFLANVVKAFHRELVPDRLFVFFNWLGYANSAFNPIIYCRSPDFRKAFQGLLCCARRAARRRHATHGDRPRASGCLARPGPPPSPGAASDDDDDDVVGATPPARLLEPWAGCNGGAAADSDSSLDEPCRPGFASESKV
Experimental: as §1, §2

PDE5 (h) (ns) = experiment: Enzyme assay PDE5 (h) (ns); type: biochemical, human
From the text: as §3, §4

acetylcholinesterase (h) = target: T5, acetylcholinesterase (h) (Homo sapiens, UniProt P22303); experiment: Enzyme assay acetylcholinesterase (h); type: biochemical; settings: read-out: % Inhibition of Control Values @ 10 μM
T5 construct: host or cells: HEK-293 cells
T5 sequence (P22303 32-614): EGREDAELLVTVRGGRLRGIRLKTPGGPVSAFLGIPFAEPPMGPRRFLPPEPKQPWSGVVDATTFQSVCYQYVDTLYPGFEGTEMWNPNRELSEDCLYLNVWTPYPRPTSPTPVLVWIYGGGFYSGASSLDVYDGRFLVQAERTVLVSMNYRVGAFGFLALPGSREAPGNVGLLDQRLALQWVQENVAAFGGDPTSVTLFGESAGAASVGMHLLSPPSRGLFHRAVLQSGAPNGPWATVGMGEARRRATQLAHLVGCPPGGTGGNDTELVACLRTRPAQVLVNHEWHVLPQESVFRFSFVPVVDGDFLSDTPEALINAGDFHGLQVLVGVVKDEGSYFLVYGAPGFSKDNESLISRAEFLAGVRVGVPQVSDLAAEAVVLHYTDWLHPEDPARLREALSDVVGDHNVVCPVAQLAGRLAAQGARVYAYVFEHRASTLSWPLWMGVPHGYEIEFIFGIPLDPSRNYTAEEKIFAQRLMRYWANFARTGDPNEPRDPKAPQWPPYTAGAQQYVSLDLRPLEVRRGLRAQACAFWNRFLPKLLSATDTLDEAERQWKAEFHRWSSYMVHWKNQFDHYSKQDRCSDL
From the text: as §3, §4

5-HT transporter (h) = target: T6, 5-HT transporter (h) (Homo sapiens, UniProt P31645); experiment: Binding 5-HT transporter (h) (aa); settings: read-out: % Inhibition of Control Specific Binding @ 10 μM
T6 construct: expressed in transfected cells; host or cells: CHO cells
T6 sequence (P31645 whole entry): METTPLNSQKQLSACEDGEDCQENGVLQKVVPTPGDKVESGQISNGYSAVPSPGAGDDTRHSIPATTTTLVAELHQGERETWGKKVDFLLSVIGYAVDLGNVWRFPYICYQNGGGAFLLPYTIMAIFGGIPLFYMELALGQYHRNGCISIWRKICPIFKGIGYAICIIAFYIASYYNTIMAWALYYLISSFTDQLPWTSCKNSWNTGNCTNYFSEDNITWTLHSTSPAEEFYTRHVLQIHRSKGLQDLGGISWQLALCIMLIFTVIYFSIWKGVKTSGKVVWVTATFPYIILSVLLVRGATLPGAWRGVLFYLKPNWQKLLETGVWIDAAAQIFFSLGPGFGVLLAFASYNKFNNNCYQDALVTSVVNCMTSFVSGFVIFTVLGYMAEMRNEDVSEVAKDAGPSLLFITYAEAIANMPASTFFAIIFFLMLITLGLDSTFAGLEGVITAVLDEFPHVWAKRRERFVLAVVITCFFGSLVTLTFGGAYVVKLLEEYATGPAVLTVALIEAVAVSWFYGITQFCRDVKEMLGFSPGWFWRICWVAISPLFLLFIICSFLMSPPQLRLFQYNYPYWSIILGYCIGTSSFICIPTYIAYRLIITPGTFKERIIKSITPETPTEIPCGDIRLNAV
Experimental: as §1, §2

5-HT (ns) = experiment: Binding 5-HT (ns) (ag); design: species or system rat
Experimental: as §1, §2

Dopamine D4.4 (h) = target: T7, Dopamine D4.4 (h) (Homo sapiens, UniProt P21917); experiment: Binding D4.4 (h) (aa); settings: read-out: % Inhibition of Control Specific Binding @ 10 μM
T7 construct: expressed in transfected cells; host or cells: CHO cells
T7 sequence (P21917 1-419): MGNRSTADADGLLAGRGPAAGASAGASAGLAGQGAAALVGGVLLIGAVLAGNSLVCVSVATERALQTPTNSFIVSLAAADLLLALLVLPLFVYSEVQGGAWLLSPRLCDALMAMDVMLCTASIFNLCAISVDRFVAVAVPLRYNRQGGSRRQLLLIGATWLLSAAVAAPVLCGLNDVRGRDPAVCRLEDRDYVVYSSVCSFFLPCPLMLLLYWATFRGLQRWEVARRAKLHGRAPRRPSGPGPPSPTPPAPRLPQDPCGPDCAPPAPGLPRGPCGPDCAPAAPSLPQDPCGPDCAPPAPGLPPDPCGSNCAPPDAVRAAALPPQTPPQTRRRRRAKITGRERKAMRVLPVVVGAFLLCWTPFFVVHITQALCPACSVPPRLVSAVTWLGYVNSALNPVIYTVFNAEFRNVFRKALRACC
Experimental: as §1, §2

Adrenergic α2 (ns) = experiment: Binding α2 (ns) (aa); design: species or system rat
Experimental: as §1, §2

Angiotensin AT1 (h) = target: T8, Angiotensin AT1 (h) (Homo sapiens, UniProt P30556); experiment: Binding AT1 (h) (aa); settings: read-out: % Inhibition of Control Specific Binding @ 10 μM
T8 construct: expressed in transfected cells; host or cells: HEK-293 cells
T8 sequence (P30556 1-359): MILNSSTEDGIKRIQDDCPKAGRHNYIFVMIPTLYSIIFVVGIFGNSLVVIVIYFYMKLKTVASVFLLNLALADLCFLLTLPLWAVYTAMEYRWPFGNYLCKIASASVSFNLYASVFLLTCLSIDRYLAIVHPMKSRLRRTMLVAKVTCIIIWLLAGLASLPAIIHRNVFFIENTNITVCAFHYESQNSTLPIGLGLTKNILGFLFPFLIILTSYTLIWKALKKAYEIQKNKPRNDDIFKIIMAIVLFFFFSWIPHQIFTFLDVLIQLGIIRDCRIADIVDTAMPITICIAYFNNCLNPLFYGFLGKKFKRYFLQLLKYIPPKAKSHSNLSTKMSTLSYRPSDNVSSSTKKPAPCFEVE
Experimental: as §1, §2

Histamine H2 (h) = target: T9, Histamine H2 (h) (Homo sapiens, UniProt P25021); experiment: Binding H2 (h) (aa); settings: read-out: % Inhibition of Control Specific Binding @ 10 μM
T9 construct: expressed in transfected cells; host or cells: CHO cells
T9 sequence (P25021 whole entry): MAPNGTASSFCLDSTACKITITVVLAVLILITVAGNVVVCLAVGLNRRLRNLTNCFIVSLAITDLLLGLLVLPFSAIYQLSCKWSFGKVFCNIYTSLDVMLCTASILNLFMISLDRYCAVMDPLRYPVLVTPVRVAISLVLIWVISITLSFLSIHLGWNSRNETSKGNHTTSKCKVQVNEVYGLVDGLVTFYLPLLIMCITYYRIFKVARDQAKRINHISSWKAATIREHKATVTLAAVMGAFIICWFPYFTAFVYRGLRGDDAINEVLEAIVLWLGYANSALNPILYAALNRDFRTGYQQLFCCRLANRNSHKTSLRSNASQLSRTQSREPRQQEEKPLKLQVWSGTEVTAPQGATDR
Experimental: as §1, §2

T1 sequence (P35346 whole entry): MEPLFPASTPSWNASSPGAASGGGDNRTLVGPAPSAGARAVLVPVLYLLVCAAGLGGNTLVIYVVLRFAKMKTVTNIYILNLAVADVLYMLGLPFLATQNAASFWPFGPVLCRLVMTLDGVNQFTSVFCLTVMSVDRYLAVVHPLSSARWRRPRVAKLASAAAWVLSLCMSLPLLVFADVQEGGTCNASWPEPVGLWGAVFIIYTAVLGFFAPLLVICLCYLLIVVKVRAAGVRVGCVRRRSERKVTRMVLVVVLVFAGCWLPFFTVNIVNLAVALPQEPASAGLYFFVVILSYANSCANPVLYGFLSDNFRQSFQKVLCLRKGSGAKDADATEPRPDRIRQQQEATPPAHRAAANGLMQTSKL

SMILES | inhibition at 10 µM (Somatostatin sst5 (h)) | % Inhibition of Control Specific Binding @ 10 μM (P2Y) | % Inhibition of Control Specific Binding @ 10 μM (GABA transporter) | inhibition at 10 µM [1] | inhibition at 10 µM (PKCα (h)) | % Inhibition of Control Specific Binding @ 10 μM (Muscarinic M (ns)) | inhibition at 10 µM (β1 (h)) | % Inhibition of Control Values @ 10 μM (PDE5 (h) (ns)) | inhibition at 10 µM (acetylcholinesterase (h)) | inhibition at 10 µM (5-HT transporter (h)) | % Inhibition of Control Specific Binding @ 10 μM (5-HT (ns)) | inhibition at 10 µM (Dopamine D4.4 (h)) | % Inhibition of Control Specific Binding @ 10 μM (Adrenergic α2 (ns)) | inhibition at 10 µM (Angiotensin AT1 (h)) | inhibition at 10 µM (Histamine H2 (h))
CC1(C)C(=O)N(c2ccc(C#N)c(C(F)(F)F)c2)C(=S)N1c1ccc(C(=O)O)c(F)c1 [(MI), 4-(3-(4-cyano-3-(trifluoromethyl)phenyl)-5,5-dimethyl-4-oxo-2-thioxoimidazolidin-1-yl)-2-fluorobenzoic acid] | -25% | −19% | −16% | 18% | 4% | 18% | -2% | 4% | 51% | 1% | 21% | 1% | −7% | 11% | -41%
CC1(C)C(=O)N(c2ccc(C#N)c(C(F)(F)F)c2)C(=S)N1c1ccc(C(N)=O)c(F)c1 [(MII), 4-(3-(4-Cyano-3-(trifluoromethyl)phenyl)-5,5-dimethyl-4-oxo-2-thioxoimidazolidin-1-yl)-2-fluorobenzamide] | 16% | −2% | 7% | -4% | 6% | 1% | -7% | −1% | 9% | 16% | 14% | 9% | −9% | 0% | -27%
CC1(C)C(=O)N(c2ccc(C#N)c(C(F)(F)F)c2)C(=O)N1c1ccc(C(N)=O)c(F)c1 [(MIII), 4-(3-(4-cyano-3-(trifluoromethyl)phenyl)-5,5-dimethyl-2,4-dioxoimidazolidin-1-yl)-2-fluorobenzamide] | 2% | −1% | −35% | -5% | 3% | 20% | 2% | 8% | -1% | 13% | −12% | 13% | −7% | 6% | -19%
CNC(=O)c1ccc(N2C(=O)N(c3ccc(C#N)c(C(F)(F)F)c3)C(=O)C2(C)C)cc1F [(MIV), 4-(3-(4-cyano-3-(trifluoromethyl)phenyl)-5,5-dimethyl-2,4-dioxoimidazolidin-1-yl)-2-fluoro-N-methylbenzamide] | -7% | 0% | −24% | 0% | 5% | 25% | 3% | 2% | 23% | 18% | 6% | -15% | −7% | 0% | -20%
